Data reported in patent US5561161A, “Methods of administering and pharmaceutical formulations containing n-substituted benzamides and/or acid addition salts thereof” (priority 1994, dated 1996).
Entries after “also recorded” stand apart in the source; their conditions may differ. Where a name gives a salt, the structure may show the parent alone. Read-outs that look alike come from different tables or passages of the source.

Assays:
[1] = cited from earlier work
[2] = test system: human lung adenocarcinoma (H-2981); assay: Radiosensitization of human lung adenocarcinoma xenografts in Scid mice; settings: 2 mg/kg i.m., -1 or -2 hours to 1 Gy; hydrochloride
Description: Tumor tissue suspensions were prepared and inoculated subcutaneously into the midback region of 3-5 week old Scid mice so that 10 mm×10 mm tumors were grown in about 25 days. […] The tumor volumes were measured and recorded every 2-3 days and analyzed by a t-test at day 17 after inoculation.

[3] = test system: dopamine2 (D2) receptor; settings: cited from earlier work
[4] = test system: human cancer patients; settings: intravenous, cisplatin chemotherapy; cited from earlier work
[5] = test system: 5-hydroxytryptamine3 (5-HT3) receptor; settings: cited from earlier work

| SMILES | solubility in water / aqueous vehicles ([1]; hydrochloride) | radiosensitization, effect of pH (acidic vs neutral form) [2] | binding to D2 receptor [3] | sodium ion dependence of D2 receptor binding [3] | solubility in water / aqueous vehicles [1] | inhibition of emesis [4] | binding to 5-HT3 receptor [5] |
| --- | --- | --- | --- | --- | --- | --- | --- |
| CCN(CC)CCNC(=O)c1cc(Cl)c(N)cc1OC [metoclopramide hydrochloride] | freely soluble in water | not altered; also recorded: Lack of any measurable difference | – | – | – | – | – |
| CCN(CC)CCNC(=O)c1cc(Cl)c(N)cc1OC [metoclopramide] | – | – | known to bind | sodium ion dependent | quite insoluble in water | can inhibit the biological response of emesis | known to bind |
